We go through three compounds from publication PMC8304610, “Discovery of Novel 2,4-Dianilinopyrimidine Derivatives Containing 4-(Morpholinomethyl)phenyl and N-Substituted Benzamides as Potential FAK Inhibitors and Anticancer Agents” (Molecules, 2021).

One series has as its target T1, FAK kinase (Homo sapiens, UniProt Q05397).
T1 construct: purchased Promega Corporation V9301
Description: ADP-Glo kinase enzymatic assay. The series is classed as biochemical. The note with it: mean ± SD of three independent experiments. The method, then: The ADP-Glo™ Kinase Assay Kit and FAK Kinase Enzyme (Catalog. V9301) were purchased from Promega Corporation (Madison, WI, USA). The experiments were performed according to the detailed and complete protocols of the manufacturer. Briefly, the concentration of FAK determined by optimization experiments was 0.1 μg/μL. Suitable concentration gradients from 1.6 to 1000 nM were set for all the tested compounds. A kinase reaction buffer, a substrate/ATP mixture, and a FAK solution were prepared right before use. The 5 μL kinase reaction consisted of 1 μL of compound solution, 2 μL of substrate/ATP mixture, and 2 μL of FAK solution. The control without enzyme was provided by 3 μL of kinase reaction buffer and 2 μL of substrate/ATP mixture. The negative control was prepared using 1 μL of kinase reaction buffer instead of a compound solution. The kinase reactions were added to a 384-well plate and incubated at room temperature for 60 min, then 5 μL of ADP-Glo™ Reagent was added to stop the kinase reaction and deplete the unconsumed ATP, and incubated at room temperature for 40 min. After adding 10 μL of Kinase Detection Reagent, the plate was incubated at room temperature for 30 min and then luminescence was recorded (integration time 0.5–1 s) on a TriStar® LB942 Multimode Microplate Reader (BERTHOLD TECHNOLOGIES GmbH & Co. KG., Bad Wildbad, Germany). Curve fitting and data presentations were performed using GraphPad Prism version 8.0.
(In general: In ADP-Glo the light output rises with the ADP produced.)

Series [1] concerns H1975 non-small cell lung cancer (NSCLC) cells. Description: CCK-8 cell viability assay, H1975. The following applies: Homo sapiens, NCI-H1975, CCK-8, 72 h, mean ± SD of three experiments, read-out: Antiproliferative Activity IC50, H1975. Format: cell-based. Here is the method:
(§1) The H1975 human NSCLC cell line was obtained from ATCC. A431 human epithelial carcinoma and HBE human bronchial epithelial cell lines were kind gifts from Fuheng Biological Company Ltd. (Shanghai, China) and YuXi Biotech Company (Jiangsu, China), respectively. The cells were maintained in RPMI 1640 or DMEM (Gibco®, Thermo Fisher Scientific Inc., Waltham, MA, USA) containing 10% fetal bovine serum (FBS, Gibco®) and 1% penicillin-streptomycin (Beyotime Company, Shanghai, China) at 37 °C in a 5% CO2 incubator.
(§2) A total of 3000 cells of H1975 or HBE and 5000 cells of A431 were seeded for each well into a 96-well plate and cultured in 10% FBS respective growth medium overnight. Various concentrations (0–20 μM) of each compound were then added in triplicate to the cells. After 72 h of incubation, 10 μL of CCK-8 solution (5.0 mg/mL, Biotool Company, Kirchberg, Switzerland) was added to each well and the cells continued to culture for 4 h. The optical density (OD) was determined at 450 nm with a microplate reader (Thermo Fisher Scientific, Waltham, MA, USA). IC50 values were calculated employing GraphPad Prism version 8.0.
In general terms: Tetrazolium dyes change colour on reduction, which living cells bring about.

The test system of series [2] is A431 human epithelial carcinoma cells. Description: CCK-8 cell viability assay, A431. The series is classed as cell-based. The note with it: A-431, CCK-8, 72 h, mean ± SD of three experiments, read-out: Antiproliferative Activity IC50, A431. The method, then: as §1, §2
Series [3] deals with normal human bronchial epithelial cells (HBE). Description: CCK-8 cellular selectivity assay, HBE. Format: cell-based. The following applies: for IC50: Homo sapiens, Epithelial cell, HBE normal cells, CCK-8, 72 h, mean ± SD of three experiments, read-out: Antiproliferative Activity IC50, HBE; for SI Values (selectivity index): IC50 for HBE cell line/IC50 for H1975 cell line. Here is the method:
as §1, §2

In series [4] the test system is H1975 cells. Description: Annexin V-FITC/PI flow cytometry apoptosis assay. Format: cell-based, human. The note with it: H1975, 0.1, 0.5, 1 μM, 48 h. Here is the method: (§3) H1975 cells were seeded at a density of 1 × 10^5 cells/well into 6-well plates for 24 h and then exposed to different concentrations of inhibitors for 48 h. The cells were harvested. (1) The cells were stained with Annexin V-FITC (5 µL)/propidium iodide (5 µL), and the samples were detected and flow cytometry (Becton-Dickinson, Franklin Lakes, NJ, USA) was performed to quantify the number of apoptotic cells. (2) The cells were stained with propidium iodide (PI) in the dark for 30 min, and then analyzed for cell cycle distribution by the flow cytometry assay.
In general terms: Flow cytometry measures light scatter and fluorescence of single cells or particles in a stream.

The subject of series [5] is H1975 cells. Description: Cell cycle analysis by PI flow cytometry. Format: cell-based, human. The note with it: 48 h. The method, then: as §3
Series [6] relates to H1975 cells. Description: Scratch (cell migration) assay. The series is classed as cell-based, human. The note with it: H1975, 0.1, 0.5, and 1 μM, 24 h. Here is the method:
H1975 cells were seeded in 6-well plates and incubated for 12 h. When cells were grown to 90–100% confluency in a monolayer, wounds were generated using a pipette tip. […] The images were captured to record the status of cells near the scratch lines at the beginning and after 12 and 24 h.

In series [7] the test system is H1975 cells. Description: AO/EB staining assay. Format: cell-based, human. The following applies: H1975, 0.1, 0.5, and 1 μM. Here is the method: H1975 cells at a density of 1 × 10^5 cells/well in 6-well plates were incubated for 24 h. After discarding the original culture medium, different concentrations of inhibitors were used. The cells were incubated for 48 h and then washed with phosphate-buffered saline (PBS) three times. Cells were subsequently incubated in the dye mix containing 1.0 µg/mL of AO and 1.0 µg/mL of EB in PBS at 37 °C for 5 min, and then washed with PBS. The apoptotic, necrotic, and live cells were examined under the fluorescent inverted microscope (OLYMPUS, Tokyo, Japan).

T1 sequence (Q05397 393-698 limits assumed): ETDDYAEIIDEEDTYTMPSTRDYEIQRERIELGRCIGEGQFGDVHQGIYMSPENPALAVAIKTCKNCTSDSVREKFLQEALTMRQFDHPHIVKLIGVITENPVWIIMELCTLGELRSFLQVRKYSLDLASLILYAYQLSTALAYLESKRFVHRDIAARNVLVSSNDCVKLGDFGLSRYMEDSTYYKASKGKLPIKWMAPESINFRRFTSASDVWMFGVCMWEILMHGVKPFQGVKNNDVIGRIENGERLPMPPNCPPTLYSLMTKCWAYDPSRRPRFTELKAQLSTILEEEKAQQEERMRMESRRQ

Consider `O=C(NCCO)c1ccccc1Nc1nc(Nc2ccc(CN3CCOCC3)cc2)ncc1Cl` [Compound 8a, 2-((5-Chloro-2-((4-(morpholinomethyl)phenyl)amino)pyrimidin-4-yl)amino)-N-(2-hydroxyethyl)benzamide], for which the IC50 (commonly the midpoint of a concentration-inhibition curve) at FAK kinase amounted to 47 ± 6 nM. Further, in series [1], the IC50 was found to be 44 ± 11 nM. For the same compound, the IC50 in series [2] stood at 119 ± 36 nM. Besides, in series [3], the half-inhibitory concentration (IC50) is 1.04 ± 0.266 µM and the “SI Values (selectivity index)” value was found to be 24. Further, the “Apoptosis induction (in words)” value with H1975 cells [4] is “substantially increased the extent of apoptosis in H1975 cells in a dose-dependent manner”. For the same compound, in the series with H1975 cells [5] (H1975, 1.0 μM), the “%G1 (G0/G1 phase) cells” value turned out to be 39.06%, the “%G2 (G2/M phase) cells” value came to 37.29% and the “%S phase cells” value stood at 23.65%. The “Cell cycle arrest (in words)” value with H1975 cells [5] (H1975, 0.1, 0.5, and 1 μM) is reported as “induced cell cycle arrest in S/G2 phase in a dose-dependent manner”. Further, the “Cell migration (in words)” value in the series on H1975 cells [6] was “reduced migration distances”. The “Apoptotic morphology (in words)” value in the series with H1975 cells [7] is “exhibited certain morphological phenomena characteristic of apoptosis”.
On to `O=C(NCCCCCCOc1no[n+]([O-])c1S(=O)(=O)c1ccccc1)c1ccccc1Nc1nc(Nc2ccc(CN3CCOCC3)cc2)ncc1Cl` [Compound 9g, 4-((6-(2-((5-Chloro-2-((4-(morpholinomethyl)phenyl)amino)pyrimidin-4-yl)amino)benzamido)hexyl)oxy)-3-(phenylsulfonyl)-1,2,5-oxadiazole 2-oxide], for which the melting point (commonly the temperature, or range, at which the solid turns liquid) lay within 120 to 122 °C. Besides, the IC50 at FAK kinase is greater than 1000 nM. Also, the IC50 in series [1] turned out to be 592 ± 73 nM. For the same compound, the IC50 in series [2] came to 617 ± 40 nM. In series [3], the IC50 came to 3.01 ± 0.09 µM and the “SI Values (selectivity index)” value is listed as 5.
Regarding `CNC(=O)c1ccccc1Nc1nc(Nc2ccc(N3CCOCC3)cc2OC)ncc1Cl` [TAE226, reference compound], the IC50 in series [1] is 141 ± 41 nM; in series [2], 392 ± 53 nM; in series [3], greater than 20 µM. Further, the “Cell migration (in words)” value with H1975 cells [6] was “reduced migration distances”.
